Results reported in paper PMC3265452 (PLoS Neglected Tropical Diseases, 2012).
Counter-ions that a name gives are not always drawn.

molecular target: AaDOP2 (Aedes aegypti, UniProt H6D5H2); assay: AaDOP2 antagonist screen of the LOPAC1280 library (HEK-CRELuc-Aadop2 cells, luminescence); assay type: cell-based; conditions: not given
Sequence (H6D5H2 1-476): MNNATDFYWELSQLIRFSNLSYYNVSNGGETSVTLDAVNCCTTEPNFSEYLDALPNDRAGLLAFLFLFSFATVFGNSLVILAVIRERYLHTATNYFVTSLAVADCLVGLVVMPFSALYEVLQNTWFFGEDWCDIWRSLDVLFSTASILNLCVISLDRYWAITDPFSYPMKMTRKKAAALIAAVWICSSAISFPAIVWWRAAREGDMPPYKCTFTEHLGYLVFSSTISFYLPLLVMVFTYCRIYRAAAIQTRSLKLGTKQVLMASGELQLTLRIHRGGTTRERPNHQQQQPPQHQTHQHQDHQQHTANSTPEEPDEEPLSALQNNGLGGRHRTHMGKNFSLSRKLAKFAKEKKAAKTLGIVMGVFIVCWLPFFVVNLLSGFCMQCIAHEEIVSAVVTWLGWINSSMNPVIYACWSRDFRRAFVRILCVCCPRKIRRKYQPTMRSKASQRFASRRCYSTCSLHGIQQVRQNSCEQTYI

Compound	Compound effect (percent receptor signaling in presence of test compound, relative lux units relative to the SCH23390 control)	% of the SCH23390 effect (percent inhibition of receptor response relative to the SCH23390 control)
COc1[nH]c2ccc(F)cc2c1C(=O)OCC1CCN(CCNS(C)(=O)=O)CC1.NS(=O)(=O)O [Compound 626, GR 125487 sulfamate salt]	87	
Br.C[N+](C)(C)CCCCCNCC12CC3CC(CC(C3)C1)C2.[Br-] [Compound 627, IEM-1460]	97	
CC(C)C(=O)c1c(C(C)C)nn2ccccc12 [Compound 628, Ibudilast]	136	
Cl.O=C(O)Cc1c[nH]cn1 [Compound 629, Imidazole-4-acetic acid hydrochloride]	122	
O=C1C(SCCO)=C(SCCO)C(=O)c2ccccc21 [Compound 631, NSC 95397]	17	83%
O=C1CCC(c2ccc(-n3ccnc3)cc2)=NN1 [Compound 632, Imazodan]	92	
NC(=O)CI [Compound 633, Iodoacetamide]	84	
O=S(=O)(c1cccc2cnccc12)N1CCNCC1 [Compound 634, HA-100]	71	
CC(C)[N+]1(C)[C@@H]2CC[C@H]1C[C@@H](OC(=O)C(CO)c1ccccc1)C2 (some centres unmarked) [Compound 635, Ipratropium bromide]	118	
CC(=O)[C@]1(O)Cc2c(O)c3c(c(O)c2[C@@H](O[C@H]2C[C@H](N)[C@H](O)[C@H](C)O2)C1)C(=O)c1ccccc1C3=O [Compound 636, Idarubicin]	17	
COc1ccc2[nH]c(I)c(CCNC(C)=O)c2c1 [Compound 637, 2-Iodomelatonin]	113	
CN([C@@H](Cc1ccc(OS(=O)(=O)c2cccc3cnccc23)cc1)C(=O)N1CCN(c2ccccc2)CC1)S(=O)(=O)c1cccc2cnccc12 [Compound 638, KN-62]	104	
O=S(=O)(c1cccc2c(I)cccc12)N1CCCNCC1 [Compound 641, ML-7]	85	
CCCC(=O)NCCc1c2n(c3ccc(OC)cc13)Cc1ccccc1-2 [Compound 647, IIK7]	96	
CC(C)Cn1c(=O)n(C)c(=O)c2[nH]cnc21 [Compound 649, 3-Isobutyl-1-methylxanthine]	129	
c1ccc2c(c1)OCC(C1=NCCN1)O2 (centres unmarked) [Compound 650, Idazoxan hydrochloride]	103	
CC1CN(S(=O)(=O)c2cccc3cnccc23)CCN1.Cl.Cl (centres unmarked) [Compound 651, 1-(5-Isoquinolinylsulfonyl)-3-methylpiperazine dihydrochloride]	100	
CC1CNCCN1S(=O)(=O)c1cccc2cnccc12.Cl.Cl (centres unmarked) [Compound 653, 1-(5-Isoquinolinylsulfonyl)-2-methylpiperazine dihydrochloride]	29	
COc1ccc2c(c1)c(CC(=O)O)c(C)n2C(=O)c1ccc(Cl)cc1 [Compound 654, Indomethacin]	100	
Nc1nc2[nH]c(=O)cnc2c(=O)[nH]1 [Compound 656, Isoxanthopterin]	106	

Compound	Compound effect (percent receptor signaling in presence of test compound, relative lux units relative to the SCH23390 control)	% of the SCH23390 effect (percent inhibition of receptor response relative to the SCH23390 control)
CC(=N)NCCCC[C@H](N)C(=O)O.Cl [Compound 659, L-N6-(1-Iminoethyl)lysine hydrochloride]	101	
N[C@@H](Cc1ccc(O)c(I)c1)C(=O)O [Compound 660, 3-Iodo-L-tyrosine]	100	
CC(=N)NCCC[C@H](N)C(=O)O.Cl [Compound 661, L-N5-(1-Iminoethyl)ornithine hydrochloride]	102	
CC[C@H](C)[C@H]1O[C@]2(CC[C@@H]1C)C[C@@H]1C[C@@H](C/C=C(\C)[C@@H](O[C@H]3C[C@H](OC)[C@@H](O[C@H]4C[C@H](OC)[C@@H](O)[C@H](C)O4)[C@H](C)O3)[C@@H](C)/C=C/C=C3\CO[C@@H]4[C@H](O)C(C)=C[C@@H](C(=O)O1)[C@]34O)O2 [Compound 662, Ivermectin]	101	
CCn1ccnc1CC1COc2ccccc2O1 (centres unmarked) [Compound 663, Imiloxan hydrochloride]	96	
Cc1cc(C)c(NC(=O)C[C@H](CC(=O)O)c2cccc3ccccc23)c(C(=O)N2CCC3(CCCC3)CC2)c1 [Compound 664, CR 2945]	101	
CC(C)Cc1ccc([C@H](C)C(=O)O)cc1 [Compound 666, S(+)-Ibuprofen]	102	
C[C@@]1(C2CCCC2)Cc2cc(OCC(=O)O)c(Cl)c(Cl)c2C1=O [Compound 668, R(+)-IAA-94]	100	
CN[C@@H]1C[C@@H](c2ccc(Cl)c(Cl)c2)c2ccccc21 [Compound 669, Indatraline hydrochloride]	54	
CC(C)NC(C)Cc1ccc(I)cc1 (centres unmarked) [Compound 670, Iofetamine hydrochloride]	90	
CN(C(=O)Cc1ccc(Cl)c(Cl)c1)C(CN1CCCC1)c1cccc(OCC(=O)O)c1.Cl (centres unmarked) [Compound 671, ICI 204,448 hydrochloride]	97	
N=C(N)SCCc1cnc[nH]1 [Compound 673, Imetit dihydrobromide]	91	
Oc1cccc2c(O)nccc12 [Compound 674, 1,5-Isoquinolinediol]	92	
CNC(=O)[C@H]1O[C@@H](n2cnc3c(NCc4cccc(I)c4)ncnc32)[C@H](O)[C@@H]1O [Compound 676, IB-MECA]	105	
COc1ccc2c(c1)c(CC(=O)N1CCOCC1)c(C)n2C(=O)c1ccc(Cl)cc1 [Compound 677, Indomethacin morpholinylamide]	89	
Cl.Fc1ccc(C(OCCCc2c[nH]cn2)c2ccc(F)cc2)cc1 [Compound 678, 3-(1H-Imidazol-4-yl)propyl di(p-fluorophenyl)methyl ether hydrochloride]	52	
O=C(O)C1CCNCC1 [Compound 679, Isonipecotic acid]	94	
CCCn1c(C)c(C(=O)c2cccc3ccccc23)c2ccccc21 [Compound 680, JWH-015]	73	
Cc1ccc2c(c1)C(N1CCN(C)CC1)=Nc1cccnc1N2 [Compound 681, JL-18]	2	98%

same assay, conditions: 10 µM compound, 300 nM dopamine, 2 hr; hit = compound effect <20

Compound	Compound effect (percent receptor signaling in presence of test compound, relative lux units relative to the SCH23390 control)
O=C1Nc2ccccc2/C1=C1/Nc2ccccc2/C1=N\O [Compound 630, Indirubin-3'-oxime]	23%
CC(C(O)c1ccc(O)cc1)N1CCC(Cc2ccccc2)CC1.CC(C(O)c1ccc(O)cc1)N1CCC(Cc2ccccc2)CC1.O=C(O)C(O)C(O)C(=O)O (centres unmarked) [Compound 643, Ifenprodil tartrate]	64%
CCC(NC(C)C)C(O)c1ccc(O)c(O)c1.CS(=O)(=O)O (centres unmarked) [Compound 644, Isotharine mesylate]	115%
CC(C)NNC(=O)c1ccncc1.O=P(O)(O)O [Compound 657, Iproniazid phosphate]	97%
NC(N)=NCc1cccc(I)c1.NC(N)=NCc1cccc(I)c1.O=S(=O)(O)O [Compound 665, m-Iodobenzylguanidine hemisulfate]	96%
Cl.Clc1cc(I)cc(Cl)c1NC1=NCCN1 [Compound 667, p-Iodoclonidine hydrochloride]	83%
Cc1ccc(OCC(O)C(C)NC(C)C)c2c1CCC2.Cl (centres unmarked) [Compound 672, ICI 118,551 hydrochloride]	92%
CCN1CCC[C@H]1CNC(=O)c1c(OC)ccc(I)c1O [Compound 675, S(-)-IBZM]	85%

same assay, conditions: read-out: % of the SCH23390 effect (percent inhibition of receptor response relative to the SCH23390 control)

Compound	inhibition at 10 µM
CC(=O)[C@]1(O)Cc2c(O)c3c(c(O)c2[C@@H](O[C@H]2C[C@H](N)[C@H](O)[C@H](C)O2)C1)C(=O)c1ccccc1C3=O [Compound 636, Idarubicin]	83%
